Laboratory results as given in ChEMBL document CHEMBL5614405 (J Med Chem, 2024).
Values belong to the molecule of their own block, whether it stands above or below them. The source made the active and inactive calls. No cut-off for these calls is given here.

How the values were obtained:
[1] = target: T1, Rho-associated protein kinase 2 (Homo sapiens, UniProt O75116); test: Inhibition of ROCK2 (unknown origin) incubated for 60 mins in presence of ATP by mobility shift assay
Target sequence in this assay (O75116 whole entry): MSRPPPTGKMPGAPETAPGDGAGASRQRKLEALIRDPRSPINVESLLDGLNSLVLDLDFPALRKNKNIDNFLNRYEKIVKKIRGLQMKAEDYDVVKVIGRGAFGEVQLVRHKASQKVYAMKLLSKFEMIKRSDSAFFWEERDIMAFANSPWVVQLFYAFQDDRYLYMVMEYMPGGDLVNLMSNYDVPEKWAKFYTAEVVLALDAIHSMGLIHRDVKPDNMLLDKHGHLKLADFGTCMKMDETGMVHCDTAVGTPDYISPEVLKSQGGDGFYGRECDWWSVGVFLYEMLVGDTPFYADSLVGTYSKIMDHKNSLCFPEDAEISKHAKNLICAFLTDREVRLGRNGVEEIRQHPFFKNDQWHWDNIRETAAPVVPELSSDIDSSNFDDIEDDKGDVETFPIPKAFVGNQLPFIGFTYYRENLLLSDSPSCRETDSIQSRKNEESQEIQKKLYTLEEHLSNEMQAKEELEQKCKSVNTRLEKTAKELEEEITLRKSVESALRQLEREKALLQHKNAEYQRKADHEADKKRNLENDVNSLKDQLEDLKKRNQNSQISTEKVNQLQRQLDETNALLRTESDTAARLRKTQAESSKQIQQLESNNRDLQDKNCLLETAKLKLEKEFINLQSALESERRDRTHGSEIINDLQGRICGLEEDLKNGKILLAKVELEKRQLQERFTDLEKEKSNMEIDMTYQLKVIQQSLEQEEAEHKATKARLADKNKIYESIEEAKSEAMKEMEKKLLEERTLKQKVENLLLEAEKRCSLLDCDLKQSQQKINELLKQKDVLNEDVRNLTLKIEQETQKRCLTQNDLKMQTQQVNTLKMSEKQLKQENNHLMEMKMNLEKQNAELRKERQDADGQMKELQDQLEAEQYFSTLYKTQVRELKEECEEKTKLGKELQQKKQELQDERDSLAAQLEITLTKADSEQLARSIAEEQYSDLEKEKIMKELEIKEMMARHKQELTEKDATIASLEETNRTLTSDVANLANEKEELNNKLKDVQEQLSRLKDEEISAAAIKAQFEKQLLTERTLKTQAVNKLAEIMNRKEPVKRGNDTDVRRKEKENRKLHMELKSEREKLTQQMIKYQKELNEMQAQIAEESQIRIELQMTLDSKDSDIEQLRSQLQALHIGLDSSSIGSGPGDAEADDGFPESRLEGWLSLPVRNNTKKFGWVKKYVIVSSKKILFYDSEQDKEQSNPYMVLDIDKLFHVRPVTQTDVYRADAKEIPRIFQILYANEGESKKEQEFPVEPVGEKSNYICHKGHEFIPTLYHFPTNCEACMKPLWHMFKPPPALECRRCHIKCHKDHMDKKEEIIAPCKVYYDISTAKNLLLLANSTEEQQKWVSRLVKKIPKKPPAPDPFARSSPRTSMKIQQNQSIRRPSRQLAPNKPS

[2] = target: T2, Rho-associated protein kinase 1 (Homo sapiens, UniProt Q13464); test: Inhibition of ROCK1 (unknown origin) incubated for 10 mins in presence of ATP by mobility shift assay
Target sequence in this assay (Q13464 whole entry): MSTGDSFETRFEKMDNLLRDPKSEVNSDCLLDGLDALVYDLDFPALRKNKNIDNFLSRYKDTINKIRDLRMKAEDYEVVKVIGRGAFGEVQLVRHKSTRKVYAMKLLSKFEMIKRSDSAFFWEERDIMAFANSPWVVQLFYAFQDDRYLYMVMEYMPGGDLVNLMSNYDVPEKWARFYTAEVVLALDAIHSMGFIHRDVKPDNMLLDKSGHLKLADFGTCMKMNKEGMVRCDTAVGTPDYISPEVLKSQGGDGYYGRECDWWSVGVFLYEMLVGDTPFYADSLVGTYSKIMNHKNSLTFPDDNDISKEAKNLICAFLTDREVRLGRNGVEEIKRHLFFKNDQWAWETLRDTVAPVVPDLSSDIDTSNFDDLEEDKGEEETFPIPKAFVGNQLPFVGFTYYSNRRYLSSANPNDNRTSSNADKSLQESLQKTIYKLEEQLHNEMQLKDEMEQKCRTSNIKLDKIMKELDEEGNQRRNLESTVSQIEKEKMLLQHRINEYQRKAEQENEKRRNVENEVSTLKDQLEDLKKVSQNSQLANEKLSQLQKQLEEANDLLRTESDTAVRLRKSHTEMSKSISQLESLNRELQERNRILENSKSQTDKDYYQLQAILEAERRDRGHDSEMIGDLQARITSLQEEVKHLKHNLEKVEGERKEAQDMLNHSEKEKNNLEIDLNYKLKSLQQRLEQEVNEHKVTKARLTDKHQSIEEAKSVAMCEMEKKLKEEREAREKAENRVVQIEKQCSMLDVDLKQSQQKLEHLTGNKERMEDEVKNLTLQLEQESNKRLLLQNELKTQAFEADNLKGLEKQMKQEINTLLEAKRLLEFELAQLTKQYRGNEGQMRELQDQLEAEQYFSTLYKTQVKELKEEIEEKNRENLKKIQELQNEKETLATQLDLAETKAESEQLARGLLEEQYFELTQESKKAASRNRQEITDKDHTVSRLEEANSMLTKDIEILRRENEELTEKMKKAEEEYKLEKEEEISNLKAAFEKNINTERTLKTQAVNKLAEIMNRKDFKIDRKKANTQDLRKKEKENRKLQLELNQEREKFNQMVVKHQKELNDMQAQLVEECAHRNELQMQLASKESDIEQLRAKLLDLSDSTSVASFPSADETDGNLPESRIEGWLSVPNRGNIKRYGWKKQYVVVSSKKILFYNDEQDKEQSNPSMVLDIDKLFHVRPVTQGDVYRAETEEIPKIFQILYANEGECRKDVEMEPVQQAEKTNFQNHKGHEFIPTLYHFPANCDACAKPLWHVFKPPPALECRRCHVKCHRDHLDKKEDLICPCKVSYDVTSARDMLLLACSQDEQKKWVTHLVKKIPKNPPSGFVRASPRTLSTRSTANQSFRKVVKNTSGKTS

[3] = Toxicity in chicken embryo chorioallantoic membrane assessed as irritation score at 1.55 mM measured after 5 mins in presence of NS 2028 by microscopic analysis; type: tissue-based, Gallus gallus; settings: in vivo, 1550 µM
[4] = Drug metabolism in New Zealand rabbit cornea assessed as (S)-3-amino-2-(4-(hydroxymethyl)phenyl)-N-(isoquinolin-6-yl)propanamide Dimethanesulfonate metabolite formation at 1.55 mM TOP administration on eye measured upto 6 hrs by LC-MS/MS analysis; type: ADME, tissue-based, Oryctolagus cuniculus; settings: in vivo, topical_or_ocular, 1550 µM
[5] = Unbound drug concentration in New Zealand rabbit aqueous humor of eyeball at 1.55 mM TOP administration on eye measured upto 6 hr by LC-MS/MS analysis; type: ADME, tissue-based, Oryctolagus cuniculus; settings: in vivo, topical_or_ocular, 1550 µM
[6] = Drug metabolism in New Zealand rabbit cornea assessed as 3-(hydroxymethyl)benzoic acid metabolite formation at 1.55 mM TOP administration on eye measured after 4 hr by LC-MS/MS analysis; type: ADME, tissue-based, Oryctolagus cuniculus; settings: in vivo, topical_or_ocular, 1550 µM
[7] = Drug metabolism in New Zealand rabbit aqueous humor of eyeball assessed as 3-((nitrooxy)methyl)benzoic acid metabolite formation at 1.55 mM TOP administration on eye measured upto 6 hrs by LC-MS/MS analysis; type: ADME, tissue-based, Oryctolagus cuniculus; settings: in vivo, topical_or_ocular, 1550 µM
Oryctolagus cuniculus [8] = test: (§1) Anti-glaucoma activity in methylcellulose-induced acute intraocular hypertensive New Zealand rabbit model assessed as reduction in intraocular pressure at 1.55 mM,TOP administration on conjunctival sac measured upto 24 hrs relative to Netarsudil; type: functional, organism-based
Oryctolagus cuniculus [9] = test: Anti-glaucoma activity in methylcellulose-induced acute intraocular hypertensive New Zealand rabbit model assessed as reduction in intraocular pressure at 441.27 uM,TOP administration on conjunctival sac measured after 3 hrs relative to Netarsudil; type: functional, organism-based
[10] = Toxicity in New Zealand rabbit assessed as appearance of conjunctival congestion by measuring ocular irritation score at 0.03 % TOP administration on left eye measured after 2 days by draize eye irritation test; type: tissue-based, Oryctolagus cuniculus; settings: in vivo, topical_or_ocular, 48 h, time 2 day
[11] = Toxicity in chicken embryo chorioallantoic membrane assessed as irritation score at 1.55 mM measured after 5 mins in presence of PTIO by microscopic analysis; type: tissue-based, Gallus gallus; settings: in vivo, 1550 µM
[12] = Toxicity in New Zealand rabbit assessed as appearance of conjunctival congestion by measuring ocular irritation score at 0.03 % TOP administration on left eye measured after 7 days by draize eye irritation test; type: tissue-based, Oryctolagus cuniculus; settings: in vivo, topical_or_ocular, 168 h, time 7 day
Oryctolagus cuniculus [13] = test: as §1, with “(R)-4-(3-amino-1-(isoquinolin-6-ylamino)-1-oxopropan-2-yl)benzyl 3-((nitrooxy)methyl)benzoate Dimethanesulfonate” for “Netarsudil”; type: functional, organism-based
[14] = Drug metabolism in New Zealand rabbit cornea assessed as 3-(hydroxymethyl)benzoic acid metabolite formation at 1.55 mM TOP administration on eye measured upto 3 hr by LC-MS/MS analysis; type: ADME, tissue-based, Oryctolagus cuniculus; settings: in vivo, topical_or_ocular, 1550 µM
[15] = Drug metabolism in New Zealand rabbit cornea assessed as 3-((nitrooxy)methyl)benzoic acid metabolite formation at 1.55 mM TOP administration on eye measured upto 6 hr by LC-MS/MS analysis; type: ADME, tissue-based, Oryctolagus cuniculus; settings: in vivo, topical_or_ocular, 1550 µM
[16] = Toxicity in New Zealand rabbit assessed as appearance of conjunctival congestion by measuring ocular irritation score at 0.03 % TOP administration on left eye measured after 4 days by draize eye irritation test; type: tissue-based, Oryctolagus cuniculus; settings: in vivo, topical_or_ocular, 96 h, time 4 day
[17] = Toxicity in New Zealand rabbit assessed as appearance of conjunctival congestion by measuring ocular irritation score at 0.03 % TOP administration on left eye measured after 5 days by draize eye irritation test; type: tissue-based, Oryctolagus cuniculus; settings: in vivo, topical_or_ocular, 120 h, time 5 day
Mus musculus [18] = test: Anti-glaucoma activity in magnetic microbead induced occlusion C57BL/6J mouse model assessed as increase in retinal ganglion cell population at 441.27 uM,TOP administrated on right eye thrice a day for 21 days by immunofluorescence based confocal microscopic analysis relative to Netarsudil; type: functional, organism-based; settings: time 21.0 day
[19] = Toxicity in New Zealand rabbit assessed as appearance of conjunctival congestion by measuring ocular irritation score at 0.03 % TOP administration on left eye measured after 3 days by draize eye irritation test; type: tissue-based, Oryctolagus cuniculus; settings: in vivo, topical_or_ocular, 72 h, time 3 day
Mus musculus [20] = test: Anti-glaucoma activity in magnetic microbead induced occlusion C57BL/6J mouse model assessed as increase in retinal ganglion cell density at 441.27 uM,TOP administrated on right eye thrice a day for 21 days by immunofluorescence based confocal microscopic analysis relative to control; type: functional, organism-based; settings: time 21.0 day
[21] = target: T1, Rho-associated protein kinase 2; test: Inhibition of ROCK2 (unknown origin) assessed as fold change at 3 uM incubated for 60 mins in presence of ATP by mobility shift assay
Target sequence in this assay (O75116 whole entry, looked up): as the sequence (O75116 whole entry) above

Mus musculus [22] = test: Anti-glaucoma activity in magnetic microbead induced occlusion C57BL/6J mouse model assessed as reduction in intraocular pressure at 441.27 uM,TOP administration on right eye measured after 1 hr by tonometric analysis; type: functional, organism-based
[23] = Toxicity in chicken embryo chorioallantoic membrane assessed as irritation score at 1.55 mM measured after 5 mins by microscopic analysis relative to Netarsudil; type: tissue-based, Gallus gallus; settings: in vivo, 1550 µM
[24] = Drug metabolism in New Zealand rabbit cornea assessed as 3-(hydroxymethyl)benzoic acid metabolite formation at 1.55 mM TOP administration on eye measured upto 1 hr by LC-MS/MS analysis; type: ADME, tissue-based, Oryctolagus cuniculus; settings: in vivo, topical_or_ocular, 1550 µM
[25] = Unbound drug concentration in New Zealand rabbit cornea at 1.55 mM TOP administration on eye measured upto 3 hr by LC-MS/MS analysis; type: ADME, tissue-based, Oryctolagus cuniculus; settings: in vivo, topical_or_ocular, 1550 µM
Oryctolagus cuniculus [26] = test: Anti-glaucoma activity in methylcellulose-induced acute intraocular hypertensive New Zealand rabbit model assessed as reduction in intraocular pressure at 441.27 uM,TOP administration on conjunctival sac measured for 4 to 24 hrs relative to Netarsudil; type: functional, organism-based; settings: time 4-24 hrs
[27] = Unbound drug concentration in New Zealand rabbit cornea at 1.55 mM TOP administration on eye measured upto 1 hr by LC-MS/MS analysis; type: ADME, tissue-based, Oryctolagus cuniculus; settings: in vivo, topical_or_ocular, 1550 µM
[28] = Drug metabolism in New Zealand rabbit aqueous humor of eyeball assessed as 3-(hydroxymethyl)benzoic acid metabolite formation at 1.55 mM TOP administration on eye measured after 4 hrs by LC-MS/MS analysis; type: ADME, Oryctolagus cuniculus; settings: in vivo, topical_or_ocular, 1550 µM
[29] = Drug metabolism in New Zealand rabbit aqueous humor of eyeball assessed as 3-(hydroxymethyl)benzoic acid metabolite formation at 1.55 mM TOP administration on eye measured after 4 hr by LC-MS/MS analysis; type: ADME, tissue-based, Oryctolagus cuniculus; settings: in vivo, topical_or_ocular, 1550 µM
[30] = Drug metabolism in New Zealand rabbit aqueous humor of eyeball assessed as (S)-3-amino-2-(4-(hydroxymethyl)phenyl)-N-(isoquinolin-6-yl)propanamide Dimethanesulfonate metabolite formation at 1.55 mM TOP administration on eye measured after 4 hrs by LC-MS/MS analysis; type: ADME, Oryctolagus cuniculus; settings: in vivo, topical_or_ocular, 1550 µM
Mus musculus [31] = test: Anti-glaucoma activity in magnetic microbead induced occlusion C57BL/6J mouse model assessed as increase in retinal ganglion cell population at 441.27 uM,TOP administrated on right eye thrice a day for 21 days by immunofluorescence based confocal microscopic analysis; type: functional, organism-based; settings: time 21.0 day
[32] = Toxicity in New Zealand rabbit assessed as appearance of conjunctival congestion by measuring ocular irritation score at 0.03 % TOP administration on left eye measured after 6 days by draize eye irritation test; type: tissue-based, Oryctolagus cuniculus; settings: in vivo, topical_or_ocular, 144 h, time 6 day
Mus musculus [33] = test: Anti-glaucoma activity in magnetic microbead induced occlusion C57BL/6J mouse model assessed as reduction in intraocular pressure at 441.27 uM,TOP administration on right eye measured upto 8 hr by tonometric analysis relative to Netarsudil; type: functional, organism-based
[34] = Drug metabolism in New Zealand rabbit aqueous humor of eyeball assessed as 3-(hydroxymethyl)benzoic acid metabolite formation at 1.55 mM TOP administration on eye measured after 4 to 6 hrs by LC-MS/MS analysis; type: ADME, Oryctolagus cuniculus; settings: in vivo, topical_or_ocular, 1550 µM, time 4-6 hrs
[35] = Toxicity in New Zealand rabbit assessed as appearance of conjunctival congestion by measuring ocular irritation score at 0.03 % TOP administration on left eye measured after 1 day by draize eye irritation test; type: tissue-based, Oryctolagus cuniculus; settings: in vivo, topical_or_ocular, 24 h
[36] = Drug metabolism in New Zealand rabbit aqueous humor of eyeball assessed as (S)-3-amino-2-(4-(hydroxymethyl)phenyl)-N-(isoquinolin-6-yl)propanamide Dimethanesulfonate metabolite formation at 1.55 mM TOP administration on eye measured after 4 to 6 hrs by LC-MS/MS analysis; type: ADME, tissue-based, Oryctolagus cuniculus; settings: in vivo, topical_or_ocular, 1550 µM, time 4-6 hrs
[37] = target: T2, Rho-associated protein kinase 1; test: Inhibition of ROCK1 (unknown origin) assessed as fold change at 3 uM incubated for 10 mins in presence of ATP by mobility shift assay relative to control
Target sequence in this assay (Q13464 2-1354 limits assumed): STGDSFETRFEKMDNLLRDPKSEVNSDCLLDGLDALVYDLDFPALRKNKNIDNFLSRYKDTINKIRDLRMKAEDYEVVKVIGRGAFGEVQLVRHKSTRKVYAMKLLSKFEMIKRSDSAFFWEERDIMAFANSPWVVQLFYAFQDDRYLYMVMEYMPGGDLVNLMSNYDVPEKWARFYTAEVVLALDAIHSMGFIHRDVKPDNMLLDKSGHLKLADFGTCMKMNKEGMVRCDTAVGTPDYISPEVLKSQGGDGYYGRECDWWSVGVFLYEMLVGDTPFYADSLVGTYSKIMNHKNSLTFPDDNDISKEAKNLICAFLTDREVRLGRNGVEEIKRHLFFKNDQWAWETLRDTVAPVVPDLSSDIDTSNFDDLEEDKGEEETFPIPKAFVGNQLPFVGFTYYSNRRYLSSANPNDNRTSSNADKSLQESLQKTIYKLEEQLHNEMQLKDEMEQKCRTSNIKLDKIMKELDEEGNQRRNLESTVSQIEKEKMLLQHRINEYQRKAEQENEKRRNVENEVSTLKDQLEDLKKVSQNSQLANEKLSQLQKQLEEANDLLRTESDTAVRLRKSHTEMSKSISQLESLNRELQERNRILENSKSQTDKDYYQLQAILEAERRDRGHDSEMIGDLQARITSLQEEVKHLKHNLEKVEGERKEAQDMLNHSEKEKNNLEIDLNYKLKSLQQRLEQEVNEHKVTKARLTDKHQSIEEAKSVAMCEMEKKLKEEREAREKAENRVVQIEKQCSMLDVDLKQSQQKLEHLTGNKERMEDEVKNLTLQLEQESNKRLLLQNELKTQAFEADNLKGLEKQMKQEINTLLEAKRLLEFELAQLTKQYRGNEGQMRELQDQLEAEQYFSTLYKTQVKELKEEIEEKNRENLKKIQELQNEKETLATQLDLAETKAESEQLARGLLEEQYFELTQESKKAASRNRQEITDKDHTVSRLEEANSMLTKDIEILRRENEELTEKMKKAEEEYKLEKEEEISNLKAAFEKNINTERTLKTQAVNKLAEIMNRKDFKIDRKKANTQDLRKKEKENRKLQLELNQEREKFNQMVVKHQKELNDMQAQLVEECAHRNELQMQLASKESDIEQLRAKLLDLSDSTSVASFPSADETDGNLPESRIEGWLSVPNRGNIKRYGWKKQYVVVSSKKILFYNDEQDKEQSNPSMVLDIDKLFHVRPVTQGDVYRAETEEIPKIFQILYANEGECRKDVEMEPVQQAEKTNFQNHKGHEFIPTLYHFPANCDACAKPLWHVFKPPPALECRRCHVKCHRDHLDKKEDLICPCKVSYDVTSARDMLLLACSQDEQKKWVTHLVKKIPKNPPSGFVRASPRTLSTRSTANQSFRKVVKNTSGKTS

Oryctolagus cuniculus [38] = test: Anti-glaucoma activity in methylcellulose-induced acute intraocular hypertensive New Zealand rabbit model assessed as reduction in intraocular pressure at 1.55 mM,TOP administration on conjunctival sac measured for 5 to 7 hrs; type: functional, organism-based; settings: time 5-7 hrs
Oryctolagus cuniculus [39] = test: Anti-glaucoma activity in methylcellulose-induced acute intraocular hypertensive New Zealand rabbit model assessed as reduction in intraocular pressure at 1.55 mM,TOP administration on conjunctival sac measured for 1 to 4 hrs; type: functional, organism-based; settings: time 1-4 hrs
[40] = Toxicity in chicken embryo chorioallantoic membrane assessed as irritation score at 1.55 mM measured after 5 mins by microscopic analysis relative to Latanoprost; type: tissue-based, Gallus gallus; settings: in vivo, 1550 µM

Compound: CS(=O)(=O)O.CS(=O)(=O)O.NC[C@@H](C(=O)Nc1ccc2cnccc2c1)c1ccc(COC(=O)c2cccc(CO[N+](=O)[O-])c2)cc1
Activity [3]: Toxic | Drug metabolism [4]: Metabolite_Detected | Drug uptake(free) [5]: Active | Drug metabolism [6]: 114.73 ng/mg | Drug metabolism [7]: Metabolite_Detected | IC50 [1]: 0.66 nM | Activity (Oryctolagus cuniculus [8]): Active | Activity (Oryctolagus cuniculus [9]): Active | Activity [10]: 1 | Activity [11]: Toxic | Activity [12]: 0.67 | Activity (Oryctolagus cuniculus [13]): Active | Drug metabolism [14]: Metabolite_Notdetected | Drug metabolism [15]: Metabolite_Detected | Activity [16]: 1.67 | Activity [17]: 0.67 | Activity (Mus musculus [18]): Active | Activity [19]: 1.67 | Activity (Mus musculus [20]): Active | fold change (FC) [21]: 38 | Activity (Mus musculus [22]): Active | Activity [23]: Toxic | Drug metabolism [24]: 371.53 ng/g | Drug uptake(free) [25]: Not Active | Activity (Oryctolagus cuniculus [26]): inactive | Drug uptake(free) [27]: 14.12 ng/g | Drug metabolism [28]: 62.95 ng/mL | Drug metabolism [29]: 60.87 ng/mL | Drug metabolism [30]: 0.96 ng/mL | Activity (Mus musculus [31]): Active | Activity [32]: 1 | Activity (Mus musculus [33]): Active | IC50 [2]: 1.26 nM | Drug metabolism [34]: Metabolite_Notdetected | Activity [35]: 1.67 | Drug metabolism [36]: Metabolite_Notdetected | fold change (FC) [37]: 28

Compound: O=C(CCC/C=C\C[C@@H]1[C@@H](CC[C@@H](O)CCc2ccccc2)[C@H](O)C[C@@H]1O)OCCCCO[N+](=O)[O-] [LATANOPROSTENE BUNOD]
Activity [40]: Toxic

More lines, main results first:

IC50 [1]: 8.56 nM | IC50 [2]: 28.6 nM
Compound: NCC(C(=O)Nc1ccc2cnccc2c1)c1ccc(COC(=O)CCC(=O)O[C@@H]2CO[C@@H]3[C@H]2OC[C@@H]3O[N+](=O)[O-])cc1 (some centres not stated)

IC50 [1]: 5.27 nM | IC50 [2]: 22.5 nM
Compound: NCC(C(=O)Nc1ccc2cnccc2c1)c1ccc(COC(=O)CCCCCO[N+](=O)[O-])cc1 (configuration not stated)

IC50 [1]: 1.48 nM | IC50 [2]: 2.54 nM
Compound: CS(=O)(=O)O.CS(=O)(=O)O.NCC(C(=O)Nc1ccc2cnccc2c1)c1ccc(COC(=O)c2cccc(CO[N+](=O)[O-])c2)cc1 (configuration not stated)
Activity (Oryctolagus cuniculus [38]): Active | Activity [23]: Toxic | Activity (Oryctolagus cuniculus [39]): Active
